{"source": "patent US20240252477A1", "about": "“NLRP3 INFLAMMASOME-INHIBITING COMPOUNDS AND THE USE THEREOF” (UNIVERSITA' DEGLI STUDI DI TORINO (60%), priority 2021, published 2024)", "key": {"SAMP8 animals": {"test_system": "SAMP8 animals", "test": "SAMP8 animals: colon transit and colon IL-1β", "assay_type": "in vivo, mice"}, "colon of SAMP8 animals": {"test_system": "colon of SAMP8 animals", "test": "Colon contractions elicited by electrical stimuli (in vitro), SAMP8", "parameters": "species or system mice"}, "NLRP3 inflammasome [1]": {"target": "T1, NLRP3 inflammasome (Homo sapiens, UniProt Q96P20)", "T1 construct": "The THP-1 cells were differentiated into macrophages by treating them with PMA 50 nM; endogenous in cells; host or cells: THP-1 (human monocytic leukaemia line), PMA-differentiated, primed with LPS, triggered with ATP", "T1 sequence (Q96P20 whole entry)": "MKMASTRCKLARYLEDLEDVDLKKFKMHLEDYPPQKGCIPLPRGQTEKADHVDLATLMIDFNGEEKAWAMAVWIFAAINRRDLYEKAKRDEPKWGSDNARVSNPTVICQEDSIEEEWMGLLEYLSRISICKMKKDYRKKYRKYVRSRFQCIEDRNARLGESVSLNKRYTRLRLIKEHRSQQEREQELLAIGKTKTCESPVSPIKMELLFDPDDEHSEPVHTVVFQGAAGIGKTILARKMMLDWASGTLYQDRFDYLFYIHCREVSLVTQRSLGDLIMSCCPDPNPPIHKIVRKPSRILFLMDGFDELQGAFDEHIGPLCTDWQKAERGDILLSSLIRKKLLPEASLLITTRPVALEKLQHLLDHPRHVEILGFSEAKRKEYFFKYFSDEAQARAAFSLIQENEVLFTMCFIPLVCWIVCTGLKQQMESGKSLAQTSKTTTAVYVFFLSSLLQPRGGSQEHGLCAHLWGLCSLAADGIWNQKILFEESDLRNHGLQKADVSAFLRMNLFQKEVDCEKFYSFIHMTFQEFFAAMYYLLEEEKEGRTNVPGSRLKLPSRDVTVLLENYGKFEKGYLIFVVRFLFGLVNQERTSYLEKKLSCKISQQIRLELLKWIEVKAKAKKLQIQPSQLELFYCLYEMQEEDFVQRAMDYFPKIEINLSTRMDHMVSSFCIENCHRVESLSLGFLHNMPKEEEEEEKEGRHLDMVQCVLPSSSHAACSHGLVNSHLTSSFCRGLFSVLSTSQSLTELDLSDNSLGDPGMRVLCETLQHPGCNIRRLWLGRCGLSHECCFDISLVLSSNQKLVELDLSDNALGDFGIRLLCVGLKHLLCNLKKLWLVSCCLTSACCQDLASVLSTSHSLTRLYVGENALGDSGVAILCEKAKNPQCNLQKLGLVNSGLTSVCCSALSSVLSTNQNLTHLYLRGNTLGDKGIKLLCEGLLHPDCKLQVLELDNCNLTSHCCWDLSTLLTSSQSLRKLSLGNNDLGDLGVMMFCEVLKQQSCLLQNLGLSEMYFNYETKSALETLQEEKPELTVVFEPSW", "test": "IL-1β release (ELISA) from differentiated THP-1 cells stimulated with LPS/ATP", "assay_type": "cell-based", "details": "at the maximum concentration tested (FIG. 1B)", "method": "(§1) THP-1 cells, a monocytic human cell line derived from the peripheral blood of a patient suffering from acute monocytic leukaemia (www.atcc.org), were cultured in RPMI 1640 medium (Aurogene, Rome, Italy), with the addition of foetal bovine serum (10%, Aurogene), L-glutamine (2 mM, Aurogene), penicillin (100 IU/ml, Aurogene) and streptomycin ([…], Aurogene). The medium was changed every 2-3 days, and the cells were maintained in an incubator at 37° C., with 5% CO2, and with suitable humidity.\nThe cells were seeded in 48-well plates (90.000 cells/well), and differentiated with phorbol 12-myristate 13-acetate (PMA—50 nM, 24 hours; Sigma-Aldrich). On the next day, the differentiated THP-1s were washed twice with the balanced saline solution phosphate-buffered saline (PBS), and stimulated with lipopolysaccharide (LPS) (10 μg/mL, 4 hours; Sigma-Aldrich), prepared in serum-free medium. […]\nIL-1β release into the supernatant of cells treated as described above was determined with the Human IL-1 beta Uncoated ELISA kit (Invitrogen, Waltham, MA, USA), according to the manufacturer's instructions. […]\nThe interleukin levels were determined by measuring absorbance at X=450 nm, using a microplate reader (Victor X4—EnSight)."}, "SAMP8 mice": {"test_system": "SAMP8 mice", "test": "SAMP8 mice, model of neurodegenerative disorders (Morris test, brain markers)", "assay_type": "in vivo", "details": "SAMP8, 50 mg/kg/day p.o., 2 months", "method": "Compound INF176 was tested in vivo in an animal model of mice with spontaneous accelerated senescence (SAMP8), used as a model of neurodegenerative disorders such as mild cognitive impairment (MCI), which in most cases evolve to Alzheimer's disease (AD)."}, "Cytotoxicity (MTT assay)": {"test": "Cytotoxicity (MTT assay)", "assay_type": "cell-based, human", "details": "human; THP-1 cells, 72 hours' incubation", "method": "The THP-1 cells were seeded in a 96-well plate (15.000 cells/well) and incubated with the test compounds at four different concentrations (0.1, 1, 10 and 100 μM), operating in triplicate. The cells were placed in an incubator at 37° C., with 5% CO2, and cell viability was measured after 72 hours' incubation, using the MTT assay. This is a colorimetric assay, based on conversion of water-soluble 3-(4,5-dimethylthiazol-2-yl)-2,5-diphenyltetrazolium bromide (MTT; Sigma-Aldrich) to a violet-coloured insoluble formazan, by the mitochondrial dehydrogenase present in the live cells. The formazan is solubilised in acidified isopropanol, and the concentration is determined by measuring absorbance with a microplate reader (Victor X4—Ensight, PerkinElmer) at λ=570 nm. Viability was expressed as a percentage of the viability of the control cells, which were either untreated or treated with the carrier. The IC50 was calculated with the Graph Pad Prism software."}, "NLRP3 inflammasome [2]": {"target": "T1, NLRP3 inflammasome", "test": "NLRP3-dependent pyroptosis (LDH release) in PMA-differentiated THP-1 cells stimulated with LPS/ATP", "assay_type": "cell-based", "details": "compounds at 10 μM for 1 hour; differentiated THP-1, LPS 10 μg/mL 4 hours, ATP 1.5 hours; read-out: Pyroptosis inhibition (% ± SEM)", "method": "as §1\nThe cells were seeded in 48-well plates (90.000 cells/well), and differentiated with phorbol 12-myristate 13-acetate (PMA—50 nM, 24 hours; Sigma-Aldrich). On the next day, the differentiated THP-1s were washed twice with the balanced saline solution phosphate-buffered saline (PBS), and stimulated with lipopolysaccharide (LPS) (10 μg/mL, 4 hours; Sigma-Aldrich), prepared in serum-free medium. After 4 hours the cells were incubated with the compounds at the concentration of 10 μM for 1 hour, operating in triplicate; INF176 and INF177 were tested at three different concentrations: […]. Finally, the cells were stimulated with ATP 5 mm for 1.5 hours. The supernatants were then harvested for the subsequent analyses.\nLDH release into the supernatant obtained as described above was quantified using the CytoTox 96 nonradioactive cytotoxicity assay (Promega Corporation, Madison, […], USA), a colorimetric assay wherein LDH activity is measured with an NADH-dependent enzymatic reaction:\nBriefly, an equal volume of CytoTox Reagent was added to the supernatant and, after 30 minutes' incubation, the reaction was stopped by adding the stop solution. The formazan concentration was determined by measuring absorbance, using a microplate reader (Victor X4—EnSight, PerkinElmer, Waltham, MA, USA), at λ=490 nm. Cell death was expressed according to the manufacturer's instructions.\nThe compound INF176 was tested to measure its ability to inhibit NLRP3-dependent cell pyroptosis in human macrophages, using the experimental protocol previously published [Cocco et al. 2017].\nThe THP-1 cells were differentiated into macrophages by treating them with PMA 50 nM (24 hours) and then with LPS (10 μg/mL) for 4 hours. The cells were treated with the compound (10 μM) for 1 hour. Pyroptosis was induced by treatment with ATP 5 mm. After 90 minutes, cell death was evaluated by measuring the LDH level in the cell supernatant using the CytoTox 96 Non-Radioactive Cytotoxicity Assay (Promega Corporation, Madison, […], USA)."}, "[3]": {"test_system": "murine model of colitis induced by dextran sodium sulphate (DSS)", "test": "Colitis induced by dextran sodium sulphate (DSS), murine model", "assay_type": "in vivo", "details": "25 mg/kg/day and 50 mg/kg/day p.o.", "method": "In particular, oral administration (p.o.) of INF176 at the doses of 25 mg/kg/day and 50 mg/kg/day gave rise to an improvement in the systemic and tissue parameters associated with colitis (FIGS. 2-3)."}}}
{"smiles": "CCOC(=O)C1CCCN(C(=O)/C(=C/c2ccccc2Cl)CSc2ccccc2)C1", "note": "(stereo not drawn) [INF176, ethyl (Z)-1-(3-(2-chlorophenyl)-2-((phenylthio)methyl)acryloyl)piperidine-3-carboxylate]", "values": [{"measurement": "colon transit (pellets expelled in 1 hour)", "setting": "SAMP8 animals; SAMP8, 50 mg/kg (FIG. 5A)", "value": "improves slowing of colon transit"}, {"measurement": "IL-1β levels in the colon", "setting": "SAMP8 animals; SAMP8, 50 mg/kg (FIG. 6)", "value": "reduces the increase in IL-1β levels"}, {"measurement": "cholinergic colon contractions", "setting": "colon of SAMP8 animals; SAMP8, 50 mg/kg (FIG. 5)", "value": "significantly enhancing"}, {"measurement": "tachykininergic colon contractions", "setting": "colon of SAMP8 animals; SAMP8, 50 mg/kg (FIG. 5)", "value": "significantly enhancing"}, {"measurement": "colon contractions elicited by electrical stimuli", "setting": "colon of SAMP8 animals; SAMP8, 50 mg/kg (FIG. 5B)", "value": "significantly improves"}, {"measurement": "inhibition of IL-1beta release from human macrophages", "setting": "NLRP3 inflammasome [1]", "value": "35±1.2", "unit": "%"}, {"measurement": "cognitive decline (Morris test: escape latency, crossings in quadrant, entries into quadrant)", "setting": "SAMP8 mice", "value": "significantly counteracts cognitive decline"}, {"measurement": "expression of p-tau protein in brain tissues", "setting": "SAMP8 mice", "value": "significantly reduces expression of p-tau protein"}, {"measurement": "IC50 at 72 h", "setting": "Cytotoxicity (MTT assay)", "value": "94.2 ± 6.9", "unit": "µM"}, {"measurement": "inhibition at 10 µM", "setting": "NLRP3 inflammasome [2]", "value": "45.2 ± 7.2", "unit": "%"}, {"measurement": "body weight (weight loss)", "setting": "[3]", "value": "counteracts weight loss"}, {"measurement": "disease activity index (DAI)", "setting": "[3]", "value": "significantly reduces"}, {"measurement": "interleukin-1beta levels in colon tissues", "setting": "[3]", "value": "significantly reduces"}, {"measurement": "myeloperoxidase levels in colon tissues", "setting": "[3]", "value": "significantly reduces"}, {"measurement": "spleen weight", "setting": "[3]", "value": "counteracts weight loss and increased spleen weight"}]}
